Measurements published in a melting point compilation (Tetko et al.; mined from patent text by program, amines drawn as free bases though some values may be those of a salt).

| Compound | melting point [°C] |
| --- | --- |
| CCCCCCCCc1ccc(C(O)CC(CO)(CO)NC(C)=O)cc1 (centres undefined) | 118 to 119 |
| CCCCCCn1ccc(N)nc1=O | 216 to 217 |
| COC(=O)C(Cc1ccccc1)Oc1ccc2cc(-c3csc(-c4ccccc4)n3)ccc2c1Br (centres undefined) | 96 to 101 |
| CC(C)(C)C(=O)Nc1ccc(Cl)cc1C1(O)CCN(C/C=C/c2ccc(Cl)cc2)CC1 | 177 to 179 |
| O=C(c1ccc2c(c1)OCCOCCOCCOCCOCCO2)c1ccccn1 | 78 to 80 |
| Cc1nc(-c2ccc3c(c2)OCC32C(=O)N(Cc3ccccn3)c3ccccc32)no1 (centres undefined) | 147 to 148 |
| CCOC(=O)c1cn(C2CC2)c2c(C)c(N3CCN(C)CC3)c(F)c(C)c2c1=O | 146 to 147 |
| CS(=O)(=O)c1ccc(-c2cnn(Cc3ccccc3)c(=O)c2-c2ccc(Cl)cc2)cc1 | 157 to 159 |
| COc1ccccc1Oc1c(Cl)nc(-c2ccncc2)nc1NS(=O)(=O)c1ccc(C)cn1 | 177 to 179 |
| Cc1cnc2ccc(-c3cccc(C(F)(F)F)c3)nn12 | 105 to 107 |
| CCN(CC)C(=O)c1ccc(S(=O)(=O)N(CC)CC)o1 | 56.4 |
| Cc1[nH]cnc1CSCCN=C(N)NCCNC(N)=NCCSCc1nc[nH]c1C | 201 to 203 |
| COc1ccc(-n2nnnc2C(F)(F)F)cc1CN[C@H]1CCN(C(=O)CNC(C)=O)C[C@H]1c1ccccc1 | 112 to 115 |
| CC(C)Oc1ccnc2c1c(I)cn2S(=O)(=O)c1ccccc1 | 151 to 153 |
| O=C1C=C(c2ccccc2)C(=Nc2ccccc2)N1 | 180 to 183 |
| CCCSCCCCCCCCCC(=O)O | 42 to 43.5 |
| N=C(Nc1ccc2c(C3CN4CCC3CC4)c[nH]c2c1)c1cccs1 (centres undefined) | 144 to 146 |
| CN(C)C1=NC(=O)C(Cc2cccc(-c3ccc(O)c(C45CC6CC(CC(C6)C4)C5)c3)c2)S1 (centres undefined) | 243 to 246 |
| N#Cc1nn(-c2c(Cl)cc(C(F)(F)F)cc2Cl)cc1C1CC(F)(F)C1 | 128 to 129 |
| CCCCC(=O)Oc1cccc(NC(=O)C=C(C)OC)c1 | 84 |
| Cc1csc(N2CCN(Cc3ccc(C(F)(F)F)cc3)C2=O)n1 | 102 to 103 |
| C[C@H](NC(=O)c1c[nH]c2ncc(-c3cccs3)nc12)C(C)(C)C | 311 to 312 |
| Cc1ccc(C=CCC(CCC(=O)O)(C(=O)C=Cc2ccc(Cl)cc2)c2ccccc2)cc1 (centres undefined) | 170 to 180 |
| CC(=O)NCC1CN(c2ncccc2Cl)C1 | 109 to 111 |
| Cc1cc(C)c2c(c1O)C(NC(=O)CN1CCN(c3cccc(Cl)c3)CC1)C(C)(C)C2 (centres undefined) | 125 to 126 |

| Compound | melting point [°C] |
| --- | --- |
| CCCc1c(OCCCCCOc2cccc(NC(=O)C(=O)O)c2)ccc(C(C)=O)c1O | 117 to 118 |
| CCOc1nn(Cc2ccc(OCc3ccc4ccccc4n3)nc2)cc1CCC(=O)O | 133 to 134 |
| CCOC(=O)Cn1c(C)c(-c2ccnc3cc(Cl)ccc23)c2cc(NC(C)=O)ccc21 | 281 to 284 |
| CC(=O)Oc1ccc(-c2ccc(C(C)=O)cc2)cc1 | 124 to 126 |
| CCCOCN(C(=O)CCl)c1c(OC)cccc1OC | 83 to 85 |
| Cc1cccc2c1[C@@H]1CN(C)CC[C@@H]1CC2=O (relative stereo) | > 220 |
| CCCc1c(OCCCCCc2ccc(O)c(O)c2)ccc(C(C)=O)c1O | 126 to 127 |
| O=c1cc(-c2cccs2)oc2cccc(OCCO)c12 | 160 to 162 |
| Cn1ccnc1Sc1ccc(Nc2c(C#N)cnc3cc(N4CCC(N5CCCC5)CC4)ccc23)cc1Cl | 125 to 130 |
| OCCCCCCCCOc1ccc(-c2ccccc2)cc1 | 101 to 103 |
| COC(=O)C1C(C(OC(=S)Oc2ccc(C)cc2)C(C)C)C1(C)C (centres undefined) | 92 to 93 |
| C=CCn1c(C)nc2c1CCCC2=O | 78 |
| CS(=O)(=O)NCCC1(C[N+](=O)[O-])CCCCC1 | 86 to 88 |
| Cc1ccc(-c2cc(OCC(=O)N3CCSCC3)c3c(C(F)(F)F)cccc3n2)cc1 | 154 |
| CC(C)C1Sc2ccccc2N(CC(N)=O)C(=O)C1N (centres undefined) | 227 to 229 |
| COC(=O)CCSCc1ccc2oc(-c3ccc4ccc(Cl)cc4n3)cc2c1 | 96 to 103 |
| Cc1ccc2c(c1C)C(=O)CC2 | 43 to 44 |
| COC(=O)c1ccc(CCC(C)NCC(O)c2cc3ccccc3o2)cc1 (centres undefined) | 104 to 108 |
| O=C(/C=C/CC1CCN(Cc2ccccc2)CC1)c1ccc(Nc2ncnc3c2CCC3)cc1 | 184 to 185 |
| CCOC(=O)c1cn(C2CC2)c2cc(-c3cc(C(F)(F)F)nc(C(F)(F)F)c3)c(F)cc2c1=O | 239 to 241 |
| CN1CCN(S(=O)(=O)c2cc(NC(=O)c3cnn4c(C(F)F)cc(-c5ccc(C(F)(F)F)cc5)nc34)c(Cl)s2)CC1 | 293 |
| O=C1CCCC(=O)N1CCCn1c2ccccc2c2nc3ccccc3nc21 | 312 to 314 |
| O=C(Nc1cccnc1)N1CCc2ccc(Cl)cc21 | 204 to 205 |
| CC(=O)NNc1ccc([N+](=O)[O-])cn1 | 226 to 227 |
